Source: US8846652B2, “Therapeutic uses of steroidal compounds” (Hunter-Fleming Limited, priority 2005, dated 2014)
Peptide text beside a SMILES is read from it.

Legend:
[1] = test system: spared nerve injury (SNI) model of neuropathic pain; assay: Spared nerve injury (SNI) model of neuropathic pain, mechanical allodynia by von Frey filaments; type: in vivo, mice; conditions: daily oral gavage for two weeks, SNI lesion on day 8, thresholds measured at 2 pm over 7 days after SNI surgery
Procedure: All animals were fed standard chow and water ad libitum. Animal care and procedures were performed within the United Kingdom Home Office protocols and guidelines. Age (10-12 weeks, 25-30 g) matched adult mice were used in all experiments (n=8/genotype).
Mice were anaesthetised with Hypnorm (Fentanyl citrate 0.315 mg/ml+Fluanisone 10 mg/ml, Jansson):Hypnovel (Midazolam 5 mg/ml, Roche):water at a ratio of 1:1:2 at 4 μl/g. The recently described SNI model of neuropathic pain was used (Holmes et al (2003) Proc. Natl. Acad. Sci. U.S.A. 100 6180-6185). The spared nerve injury model (SNI), is performed by ligation of two branches of the sciatic nerve after it trifurcates, leaving one branch intact. […]
In all tests, the examiner was blind to the genotype of the mice. Mechanical thresholds were measured with a series of calibrated von Frey filaments (Stoeling) from 0.005 g to a maximum of 3.63 g. […] Mechanical sensitivity was assessed on each hind paw, employing the up-down testing paradigm to determine the threshold force required to elicit a withdrawal response to 50% of stimulations [F. E. Holmes, A. Bacon, R. J. Pope, P. A. Vanderplank, N. C. […]
11β-hydroxy-Δ4-androstene-3,17-dione was administered to 8 adult male mice aged 10-12 weeks of age daily at 9.00 am by oral gavage for two weeks. […] At 2 pm on the days when testing took place, mechanosensory thresholds were measured.

GALR1 = molecular target: T1, GALR1 (Homo sapiens, UniProt P47211); conditions: cited from earlier work
T1 sequence (P47211 1-349): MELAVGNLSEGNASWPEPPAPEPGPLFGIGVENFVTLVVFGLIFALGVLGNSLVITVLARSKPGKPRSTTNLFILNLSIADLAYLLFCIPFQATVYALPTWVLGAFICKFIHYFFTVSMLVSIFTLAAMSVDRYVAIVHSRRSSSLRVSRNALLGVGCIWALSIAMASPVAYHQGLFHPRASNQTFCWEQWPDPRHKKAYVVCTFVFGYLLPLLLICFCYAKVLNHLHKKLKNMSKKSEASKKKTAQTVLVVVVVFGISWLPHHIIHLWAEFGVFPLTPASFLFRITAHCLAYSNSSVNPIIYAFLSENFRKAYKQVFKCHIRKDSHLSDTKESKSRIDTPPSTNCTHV

GALR2 = molecular target: T2, GALR2 (Homo sapiens, UniProt O43603); conditions: cited from earlier work
T2 sequence (O43603 1-387): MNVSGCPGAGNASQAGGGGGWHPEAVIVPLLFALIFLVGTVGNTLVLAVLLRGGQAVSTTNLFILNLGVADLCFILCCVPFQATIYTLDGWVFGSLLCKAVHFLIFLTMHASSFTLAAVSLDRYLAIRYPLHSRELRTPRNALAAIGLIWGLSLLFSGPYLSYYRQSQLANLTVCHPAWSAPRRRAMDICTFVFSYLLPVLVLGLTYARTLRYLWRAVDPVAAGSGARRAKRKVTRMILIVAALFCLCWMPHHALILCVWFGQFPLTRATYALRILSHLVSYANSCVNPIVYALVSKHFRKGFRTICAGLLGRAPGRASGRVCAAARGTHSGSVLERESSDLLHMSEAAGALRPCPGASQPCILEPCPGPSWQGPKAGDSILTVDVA

SMILES | mechanosensory allodynia (chronic pain behaviour) after SNI surgery [1] | agonistic activity at GALR1 (GALR1) | agonistic activity at GALR2 (GALR2)
C[C@]12CCC(=O)C=C1CC[C@@H]1[C@@H]2[C@@H](O)C[C@]2(C)C(=O)CC[C@@H]12 [11β-hydroxy-Δ4-androstene-3,17-dione] | markedly and significantly attenuated mechanosensory allodynia | – | –
Cc1cc(=O)oc2cc(NC(=O)[C@H](CCCCN)NC(=O)[C@H](CC3CCCCC3)NC(=O)OCC3c4ccccc4-c4ccccc43)ccc12 [galnon] (HELM PEPTIDE1{[O=C(OCC1c2ccccc2-c2ccccc21)[*:2]].[Cha].K.[Cc1cc(=O)oc2cc(N[*:1])ccc12]}$$$$V2.0) | – | equally activates and has agonistic activity | equally activates and has agonistic activity
